# Laboratory results taken from US20240148821A1, “PHARMACEUTICAL USE OF CYCLIC PEPTIDE COMPOUND” (CHUGAI SEIYAKU KABUSHIKI KAISHA, priority 2021, published 2024).
# Numbered stars: 1 amine (or outer) side, 2 acyl side, 3 side chain; on linkers, the order of the positions; unused ones are H or OH. Bridge positions count the residues as written; N and C are the ends. Square brackets hold non-standard residues; d marks the D form. Peptide text beside a SMILES is read from it. * marks the point of attachment. X45 = CN([C@@H](CC=C1CN(C(=O)OC(C)(C)C)C1)C(=O)[*:2])[*:1]; hPhe(3-Cl-4-CF3) = N[C@@H](CCc1ccc(C(F)(F)F)c(Cl)c1)C(=O)O; NMePhe(4-CF3) = CN[C@@H](Cc1ccc(C(F)(F)F)cc1)C(=O)O; 3Oxa8azabicyclo(3.2.1)octane = C1CC2COCC1N2*; X111 = CN([C@@H](CCC1CCOCC1)C(=O)[*:2])[*:1]; NMePhe(4-Me) = CN[C@@H](Cc1ccc(C)cc1)C(=O)O; NMedβ3hAla = C[C@H](CC(=O)[*:2])N(C)[*:1]; NMeNva(5,5-F2) = CN[C@@H](CCC(F)F)C(=O)O; NMeGly(cPent) = CN[C@H](C(=O)O)C1CCCC1; X74 = CC(C)(O)C=CCN(CC(=O)[*:2])[*:1]; NMeCha = CN[C@@H](CC1CCCCC1)C(=O)O; Hyp = O=C(O)[C@@H]1C[C@@H](O)CN1; NMeAhp(2) = CCCCC[C@H](NC)C(=O)O; NMeChg = CN[C@H](C(=O)O)C1CCCCC1; NMeI = CC[C@H](C)[C@H](NC)C(=O)O; NMeD = CN[C@@H](CC(=O)O)C(=O)O; NMeL = CN[C@@H](CC(C)C)C(=O)O; NMehSer = CN[C@@H](CCO)C(=O)O; NMeV = CN[C@H](C(=O)O)C(C)C; Trifluoroethyl = FC(F)(F)C*; d(β3hA) = C[C@@H](N)CC(=O)O; Azetidin(1-yl) = C1CN(*)C1; NMeS = CN[C@@H](CO)C(=O)O; dPip = O=C(O)[C@H]1CCCCN1; Morpholide = C1CN(*)CCO1; NMeA = CN[C@@H](C)C(=O)O; Piperidide = C1CCN(*)CC1; Pyrrolidide = C1CCN(*)C1; Ac5c = NC1(C(=O)O)CCCC1; Aze = O=C(O)[C@@H]1CCN1; Ac4c = NC1(C(=O)O)CCC1; NEtG = CCNCC(=O)O; Sar = CNCC(=O)O; Propyl = CCC*
# Target: protein-protein interaction between Kras and SOS1 (biotin-tagged human Kras loaded with GDP, His-tagged human SOS1) (Homo sapiens (Human), UniProt P01116, G12D)
# Assay: Protein-protein interaction inhibition between Kras and SOS1 (KrasG12D-SOS PPI) using AlphaScreen;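 also: kras produced in E. coli, Ni-coupled donor beads and streptavidin acceptor beads, excitation 680 nm with emission detected at 520–620 nm via singlet oxygen transfer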
# Assay type: biochemical
# Conditions: AlphaScreen; biotin-tagged human Kras loaded with GDP, His-tagged human SOS1; read-out: KRAS G12D-SOS PPI IC50
row,Structure (SMILES),IC50 [nM]
1,"CC[C@H](C)[C@@H]1NC(=O)[C@H](CC(C)C)N(C)C(=O)C[C@@H](C(=O)N2CCCCC2)N(C)C(=O)[C@H](C2CCCCC2)N(C)C(=O)C2(CCCC2)NC(=O)CN(CC=CC(C)(C)O)C(=O)[C@H](CCc2ccc(C(F)(F)F)c(Cl)c2)NC(=O)CN(C)C(=O)[C@H](CC2CCCCC2)N(C)C(=O)CN(C)C(=O)CN(C)C1=O [Compound 2047, (11S,17S,26S,29S,33S,36S)-11-[2-[3-chloro-4-(trifluoromethyl)phenyl]ethyl]-36-cyclohexyl-17-(cyclohexylmethyl)-9-(4-hydroxy-4-methyl-pent-2-enyl)-29-isobutyl-15,18,21,24,30,34,37-heptamethyl-26[(1S)-1-methylpropyl]-33-(piperidine-1-carbonyl)-6,9,12,15,18,21,24,27,30,34,37-undecazaspiro[4.33]octatriacontane-7,10,13,16,19,22,25,28,31,35,38-undecone] ([NMeL]I[Sar][Sar][NMeCha][Sar][hPhe(3-Cl-4-CF3)][X74][Ac5c][NMeChg][NMeD]-Piperidide; lactam N-11)",5.7
2,"CC[C@H](C)[C@@H]1NC(=O)[C@H](CC(C)C)N(C)C(=O)C[C@@H](C(=O)N2CCCCC2)N(C)C(=O)[C@H](C2CCCCC2)N(C)C(=O)C2(CCCC2)NC(=O)[C@H](CC=C2CN(C(=O)OC(C)(C)C)C2)N(C)C(=O)[C@H](CCc2ccc(C(F)(F)F)c(Cl)c2)NC(=O)CN(C)C(=O)[C@H](CC2CCCCC2)N(C)C(=O)CN(C)C(=O)CN(C)C1=O [Compound 2050, tert-butyl 3-[2-[(8S,11S,17S,26S,29S,33S,36S)-11-[2-[3-chloro-4-(trifluoromethyl)phenyl]ethyl]-36-cyclohexyl-17-(cyclohexylmethyl)-29-isobutyl-9,15,18,21,24,30,34,37-octamethyl-26-[(1S)-1-methylpropyl]-7,10,13,16,19,22,25,28,31,35,38-undecaoxo-33-(piperidine-1-carbonyl)-6,9,12,15,18,21,24,27,30,34,37-undecazaspiro[4.33]octatriacontan-8-yl]ethylidene]azetidine-1-carboxylate] ([NMeL]I[Sar][Sar][NMeCha][Sar][hPhe(3-Cl-4-CF3)][X45][Ac5c][NMeChg][NMeD]-Piperidide; lactam N-11)",51
3,CC[C@H](C)[C@@H]1NC(=O)[C@H](CCOC)N(C)C(=O)C[C@@H](C(=O)N2CCCCC2)N(C)C(=O)[C@H](C(C)C)N(C)C(=O)C2(CCCC2)NC(=O)[C@@H]2CCCN2C(=O)[C@H](CCc2ccc(C(F)(F)F)c(Cl)c2)NC(=O)CN(C)C(=O)[C@H](CC2CCCCC2)N(C)C(=O)[C@@H]2CCN2C(=O)[C@H](C)N(C)C1=O [Compound 397] ([NMehSer](Me)I[NMeA][Aze][NMeCha][Sar][hPhe(3-Cl-4-CF3)]P[Ac5c][NMeV][NMeD]-Piperidide; lactam N-11),2.3
4,CCCOC[C@H]1C(=O)N(CC)CC(=O)N[C@@H](CCc2ccc(C(F)(F)F)c(Cl)c2)C(=O)N2CCC[C@H]2C(=O)NC2(CCCC2)C(=O)N(C)[C@@H](C2CCCC2)C(=O)N(C)[C@H](C(=O)N2C3CCC2COC3)CC(=O)N(C)[C@@H](CC(C)C)C(=O)N[C@@H]([C@@H](C)CC)C(=O)N(C)[C@@H](C)C(=O)N2CC[C@H]2C(=O)N1C [Compound 1338] ([NMeL]I[NMeA][Aze][NMeS](Propyl)[NEtG][hPhe(3-Cl-4-CF3)]P[Ac5c][NMeGly(cPent)][NMeD]-{3Oxa8azabicyclo(3.2.1)octane}; lactam N-11),17
5,CCO[C@@H]1C[C@H]2C(=O)NC3(CCC3)C(=O)N(C)[C@@H]([C@@H](C)CC)C(=O)N(C)[C@H](C)CC(=O)N(C)[C@@H](CC(C)C)C(=O)N[C@@H]([C@@H](C)CC)C(=O)N(C)[C@@H](C)C(=O)N3CC[C@H]3C(=O)N(C)[C@@H](Cc3ccc(C(F)(F)F)cc3)C(=O)N(C)CC(=O)N[C@@H](CCc3ccc(C(F)(F)F)c(Cl)c3)C(=O)N2C1 [Compound 99] (cyclo([Ac4c][NMeI][NMedβ3hAla][NMeL]I[NMeA][Aze][NMePhe(4-CF3)][Sar][hPhe(3-Cl-4-CF3)][Hyp](Et))),2.9
6,CC[C@H](C)[C@@H]1NC(=O)[C@H](C)N(C)C(=O)C[C@@H](C(=O)N2CCCCC2)N(C)C(=O)[C@H](C(C)C)N(C)C(=O)C2(CCCC2)NC(=O)[C@@H]2CCCN2C(=O)[C@H](CCc2ccc(C(F)(F)F)c(Cl)c2)NC(=O)[C@H]2CCCCN2C(=O)[C@H](CC2CCCCC2)N(C)C(=O)CN(C)C(=O)CN(C)C1=O [Compound 1118] ([NMeA]I[Sar][Sar][NMeCha][dPip][hPhe(3-Cl-4-CF3)]P[Ac5c][NMeV][NMeD]-Piperidide; lactam N-11),200
7,CC[C@H](C)[C@@H]1NC(=O)[C@H](CC(C)C)N(C)C(=O)C[C@@H](C)NC(=O)[C@H](C2CCCC2)N(C)C(=O)C2(CCCC2)NC(=O)[C@@H]2CCCN2C(=O)[C@H](CCc2ccc(C(F)(F)F)c(Cl)c2)NC(=O)CN(C)C(=O)[C@H](CC2CCCCC2)N(C)C(=O)[C@@H]2CCN2C(=O)[C@H](C)N(C)C1=O [Compound 1477] (cyclo([Ac5c][NMeGly(cPent)][d(β3hA)][NMeL]I[NMeA][Aze][NMeCha][Sar][hPhe(3-Cl-4-CF3)]P)),28
8,CC[C@H](C)[C@@H]1NC(=O)[C@H](CC(C)C)N(C)C(=O)C[C@@H](C(=O)N2CCCC2)N(C)C(=O)[C@H](C2CCCCC2)N(C)C(=O)C2(CCCC2)NC(=O)[C@@H]2CCCN2C(=O)[C@H](CCc2ccc(C(F)(F)F)c(Cl)c2)NC(=O)CN(C)C(=O)[C@H](Cc2ccc(C)cc2)N(C)C(=O)[C@@H]2CCN2C(=O)[C@H](C)N(C)C1=O [Compound 1852] ([NMeL]I[NMeA][Aze][NMePhe(4-Me)][Sar][hPhe(3-Cl-4-CF3)]P[Ac5c][NMeChg][NMeD]-Pyrrolidide; lactam N-11),0.94
9,CC[C@H](C)[C@@H]1NC(=O)[C@H](CC(C)C)N(C)C(=O)C[C@@H](C(=O)N2CCOCC2)N(C)C(=O)[C@H](C2CCCC2)N(C)C(=O)C2(CCCC2)NC(=O)[C@@H]2CCCN2C(=O)[C@H](CCc2ccc(C(F)(F)F)c(Cl)c2)NC(=O)CN(C)C(=O)[C@H](C2CCCC2)N(C)C(=O)[C@@H]2CCN2C(=O)[C@H](C)NC1=O [Compound 1309] ([NMeL]IA[Aze][NMeGly(cPent)][Sar][hPhe(3-Cl-4-CF3)]P[Ac5c][NMeGly(cPent)][NMeD]-Morpholide; lactam N-11),0.85
10,"CC[C@H](C)[C@@H]1NC(=O)[C@H](CC(C)C)N(C)C(=O)C[C@@H](C(=O)N2CCCCC2)N(C)C(=O)[C@H](C2CCCCC2)N(C)C(=O)C2(CCCC2)NC(=O)[C@H](CCC2CCOCC2)N(C)C(=O)[C@H](CCc2ccc(C(F)(F)F)c(Cl)c2)NC(=O)CN(C)C(=O)[C@H](CC2CCCCC2)N(C)C(=O)CN(C)C(=O)CN(C)C1=O [Compound 2048, (8S,11S,17S,26S,29S,33S,36S)-11-[2-[3-chloro-4-(trifluoromethyl)phenyl]ethyl]-36-cyclohexyl-17-(cyclohexylmethyl)-29-isobutyl-9,15,18,21,24,30,34,37-octamethyl-26-[(1S)-1-methylpropyl]-33-(piperidine-1-carbonyl)-8-(2-tetrahydropyran-4-ylethyl)-6,9,12,15,18,21,24,27,30,34,37-undecazaspiro[4.33]octatriacontane-7,10,13,16,19,22,25,28,31,35,38-undecone] ([NMeL]I[Sar][Sar][NMeCha][Sar][hPhe(3-Cl-4-CF3)][X111][Ac5c][NMeChg][NMeD]-Piperidide; lactam N-11)",3.5
11,CC[C@H](C)[C@@H]1NC(=O)[C@H](COCC(F)(F)F)N(C)C(=O)C[C@@H](C(=O)N2CCCCC2)N(C)C(=O)[C@H](C(C)C)N(C)C(=O)C2(CCCC2)NC(=O)[C@@H]2CCCN2C(=O)[C@H](CCc2ccc(C(F)(F)F)c(Cl)c2)NC(=O)CN(C)C(=O)[C@H](CC2CCCCC2)N(C)C(=O)[C@@H]2CCN2C(=O)[C@H](C)N(C)C1=O [Compound 387] ([NMeS](Trifluoroethyl)I[NMeA][Aze][NMeCha][Sar][hPhe(3-Cl-4-CF3)]P[Ac5c][NMeV][NMeD]-Piperidide; lactam N-11),4.2
12,"CC[C@H](C)[C@@H]1NC(=O)[C@H](CC(C)C)N(C)C(=O)C[C@@H](C(=O)N2CCCCC2)N(C)C(=O)[C@H](C2CCCCC2)N(C)C(=O)C2(CCCC2)NC(=O)[C@H](CCC(F)F)N(C)C(=O)[C@H](CCc2ccc(C(F)(F)F)c(Cl)c2)NC(=O)CN(C)C(=O)[C@H](CC2CCCCC2)N(C)C(=O)CN(C)C(=O)CN(C)C1=O [Compound 523] ([NMeL]I[Sar][Sar][NMeCha][Sar][hPhe(3-Cl-4-CF3)][NMeNva(5,5-F2)][Ac5c][NMeChg][NMeD]-Piperidide; lactam N-11)",5.8
13,CC[C@H](C)[C@@H]1NC(=O)[C@H](CC(C)C)N(C)C(=O)C[C@@H](C(=O)N(C)C)NC(=O)[C@H]([C@@H](C)CC)N(C)C(=O)C2(CCCC2)NC(=O)[C@@H]2CCCN2C(=O)[C@H](CCc2ccc(C(F)(F)F)c(Cl)c2)NC(=O)CN(C)C(=O)[C@H](CC2CCCCC2)N(C)C(=O)[C@@H]2CCN2C(=O)[C@H](C)N(C)C1=O [Compound 568] ([NMeL]I[NMeA][Aze][NMeCha][Sar][hPhe(3-Cl-4-CF3)]P[Ac5c][NMeI]D-NMe2; lactam N-11),8
14,CC[C@H](C)[C@@H]1NC(=O)[C@H](CC(C)C)N(C)C(=O)C[C@@H](C(=O)N2CCCC2)NC(=O)[C@H](C2CCCC2)N(C)C(=O)C2(CCCC2)NC(=O)[C@@H]2CCCN2C(=O)[C@H](CCc2ccc(C(F)(F)F)c(Cl)c2)NC(=O)CN(C)C(=O)[C@H](CC2CCCCC2)N(C)C(=O)[C@@H]2CCN2C(=O)[C@H](C)N(C)C1=O [Compound 700] ([NMeL]I[NMeA][Aze][NMeCha][Sar][hPhe(3-Cl-4-CF3)]P[Ac5c][NMeGly(cPent)]D-Pyrrolidide; lactam N-11),5
15,CCCCC[C@H]1C(=O)N[C@@H]([C@@H](C)CC)C(=O)N[C@@H](C)C(=O)N2CC[C@H]2C(=O)N(C)[C@@H](CC2CCCCC2)C(=O)N(C)CC(=O)N[C@@H](CCc2ccc(C(F)(F)F)c(Cl)c2)C(=O)N2CCC[C@H]2C(=O)NC2(CCCC2)C(=O)N(C)[C@@H](C2CCCC2)C(=O)N(C)[C@H](C(=O)N2CCC2)CC(=O)N1C [Compound 155] ([NMeAhp(2)]IA[Aze][NMeCha][Sar][hPhe(3-Cl-4-CF3)]P[Ac5c][NMeGly(cPent)][NMeD]-{Azetidin(1-yl)}; lactam N-11),1.6
